{"source": "patent US11691980B2", "about": "“Liphagal analog and multi-targeted kinase inhibitor containing liphagal or analog thereof” (TOHOKU UNIVERSITY, priority 2017, dated 2023)", "assay_type_in_all_cases": "biochemical", "key": {"CaMK2γ": {"target": "T1, CaMK2γ (Homo sapiens, UniProt Q13555)", "T1 construct": "purchased Carna Biosciences", "experiment": "mobility shift assay"}, "PKACα": {"target": "T2, PKACα (Homo sapiens, UniProt P17612)", "T2 construct": "purchased Carna Biosciences", "experiment": "mobility shift assay"}, "CDC2/CycB1": {"target": "T3, CDC2/CycB1 (Homo sapiens, UniProt P06493)", "T3 construct": "purchased Carna Biosciences", "experiment": "mobility shift assay"}, "AurC": {"target": "T4, AurC (Homo sapiens, UniProt Q9UQB9)", "T4 construct": "purchased Carna Biosciences", "experiment": "mobility shift assay"}, "ABL(T315I)": {"target": "T5, ABL(T315I) (Homo sapiens, UniProt P00519, T315I)", "T5 construct": "purchased Carna Biosciences", "experiment": "mobility shift assay"}, "ALK(C1156Y)": {"target": "T6, ALK(C1156Y) (Homo sapiens, UniProt Q9UM73, C1156Y)", "T6 construct": "purchased Carna Biosciences", "T6 sequence (Q9UM73 19-1620 C1156Y)": "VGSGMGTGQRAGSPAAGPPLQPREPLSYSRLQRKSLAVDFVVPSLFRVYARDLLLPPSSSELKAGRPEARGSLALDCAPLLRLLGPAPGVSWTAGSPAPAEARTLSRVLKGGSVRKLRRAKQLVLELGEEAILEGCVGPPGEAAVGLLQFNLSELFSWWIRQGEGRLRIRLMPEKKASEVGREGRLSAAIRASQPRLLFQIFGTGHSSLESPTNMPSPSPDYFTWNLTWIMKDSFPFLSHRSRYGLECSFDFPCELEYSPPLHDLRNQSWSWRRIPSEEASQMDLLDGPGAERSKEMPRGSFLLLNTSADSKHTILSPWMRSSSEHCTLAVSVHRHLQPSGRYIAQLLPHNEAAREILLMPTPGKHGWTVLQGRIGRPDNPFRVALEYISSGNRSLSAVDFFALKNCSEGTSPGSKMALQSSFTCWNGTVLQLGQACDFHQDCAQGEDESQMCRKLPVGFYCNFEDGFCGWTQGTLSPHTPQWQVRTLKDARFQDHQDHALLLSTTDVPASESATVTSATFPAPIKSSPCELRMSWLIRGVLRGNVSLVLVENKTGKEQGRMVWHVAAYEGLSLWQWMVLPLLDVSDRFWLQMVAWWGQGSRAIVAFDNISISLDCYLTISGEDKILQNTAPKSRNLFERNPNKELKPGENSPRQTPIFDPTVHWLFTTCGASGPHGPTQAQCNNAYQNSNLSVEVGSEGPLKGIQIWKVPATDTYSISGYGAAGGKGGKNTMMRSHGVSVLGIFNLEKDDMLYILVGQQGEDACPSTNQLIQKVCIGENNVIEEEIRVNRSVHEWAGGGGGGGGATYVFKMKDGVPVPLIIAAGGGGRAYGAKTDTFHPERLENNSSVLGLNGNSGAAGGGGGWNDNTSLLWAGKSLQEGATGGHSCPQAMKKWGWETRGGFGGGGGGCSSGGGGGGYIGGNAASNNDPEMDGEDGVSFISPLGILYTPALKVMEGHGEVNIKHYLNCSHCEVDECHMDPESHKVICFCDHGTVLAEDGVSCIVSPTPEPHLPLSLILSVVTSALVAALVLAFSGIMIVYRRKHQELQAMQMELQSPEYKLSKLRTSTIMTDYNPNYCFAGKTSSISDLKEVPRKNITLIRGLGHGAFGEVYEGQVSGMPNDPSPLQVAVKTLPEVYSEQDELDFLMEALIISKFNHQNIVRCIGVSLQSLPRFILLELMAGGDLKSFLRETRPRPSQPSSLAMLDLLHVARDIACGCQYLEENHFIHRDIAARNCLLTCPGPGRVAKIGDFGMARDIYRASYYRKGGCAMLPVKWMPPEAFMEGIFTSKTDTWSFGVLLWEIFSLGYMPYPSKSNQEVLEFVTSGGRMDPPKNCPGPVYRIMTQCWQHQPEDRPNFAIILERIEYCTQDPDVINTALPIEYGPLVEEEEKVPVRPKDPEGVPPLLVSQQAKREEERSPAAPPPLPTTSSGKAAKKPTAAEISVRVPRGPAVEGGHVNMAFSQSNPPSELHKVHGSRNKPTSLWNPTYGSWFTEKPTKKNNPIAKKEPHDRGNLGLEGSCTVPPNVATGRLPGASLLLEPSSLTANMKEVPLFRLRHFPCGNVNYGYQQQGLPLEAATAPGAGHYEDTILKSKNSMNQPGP", "experiment": "mobility shift assay"}, "ROCK1": {"target": "T7, ROCK1 (Homo sapiens, UniProt Q13464)", "T7 construct": "purchased Carna Biosciences", "experiment": "mobility shift assay"}, "EFHB2": {"target": "T8, EFHB2 (Homo sapiens, UniProt P29323)", "T8 construct": "purchased Carna Biosciences", "experiment": "mobility shift assay"}, "ARG": {"target": "T9, ARG (Homo sapiens, UniProt P42684)", "T9 construct": "purchased Carna Biosciences", "experiment": "mobility shift assay"}, "KIT(V654A)": {"target": "T10, KIT(V654A) (Homo sapiens, UniProt P10721, V654A)", "T10 construct": "purchased Carna Biosciences", "T10 sequence (P10721 26-976 V654A)": "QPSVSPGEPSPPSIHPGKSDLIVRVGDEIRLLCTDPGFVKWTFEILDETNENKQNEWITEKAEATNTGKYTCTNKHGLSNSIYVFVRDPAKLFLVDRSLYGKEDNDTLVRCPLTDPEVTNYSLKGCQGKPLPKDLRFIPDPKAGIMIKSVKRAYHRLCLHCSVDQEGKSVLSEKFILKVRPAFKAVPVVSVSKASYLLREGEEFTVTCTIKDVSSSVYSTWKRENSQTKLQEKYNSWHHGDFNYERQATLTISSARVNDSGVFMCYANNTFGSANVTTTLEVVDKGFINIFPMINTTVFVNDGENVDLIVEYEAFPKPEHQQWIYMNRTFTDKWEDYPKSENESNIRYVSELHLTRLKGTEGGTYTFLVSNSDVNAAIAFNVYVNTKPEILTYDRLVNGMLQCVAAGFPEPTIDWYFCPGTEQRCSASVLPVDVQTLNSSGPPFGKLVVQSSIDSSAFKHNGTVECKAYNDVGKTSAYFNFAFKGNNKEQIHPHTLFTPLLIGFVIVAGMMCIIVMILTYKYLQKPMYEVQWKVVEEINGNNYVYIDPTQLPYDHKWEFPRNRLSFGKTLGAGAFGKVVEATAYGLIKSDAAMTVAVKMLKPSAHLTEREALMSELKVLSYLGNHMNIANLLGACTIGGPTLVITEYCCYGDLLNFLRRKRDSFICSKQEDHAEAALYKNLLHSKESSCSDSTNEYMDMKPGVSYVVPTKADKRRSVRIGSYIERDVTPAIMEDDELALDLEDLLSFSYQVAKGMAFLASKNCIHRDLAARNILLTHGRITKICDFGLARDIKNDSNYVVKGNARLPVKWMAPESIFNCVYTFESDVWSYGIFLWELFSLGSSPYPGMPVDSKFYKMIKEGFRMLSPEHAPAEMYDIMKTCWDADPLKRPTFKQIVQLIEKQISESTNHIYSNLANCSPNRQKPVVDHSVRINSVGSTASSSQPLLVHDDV", "experiment": "mobility shift assay"}, "TAOK2": {"target": "T11, TAOK2 (Homo sapiens, UniProt Q9UL54)", "T11 construct": "purchased Carna Biosciences", "experiment": "mobility shift assay"}, "NDR1": {"target": "T12, NDR1 (Homo sapiens, UniProt Q15208)", "T12 construct": "purchased Carna Biosciences", "experiment": "mobility shift assay"}, "CDK4/CycD3": {"target": "CDK4/CycD3 (Homo sapiens, UniProt P11802)", "sequence (P11802 whole entry)": "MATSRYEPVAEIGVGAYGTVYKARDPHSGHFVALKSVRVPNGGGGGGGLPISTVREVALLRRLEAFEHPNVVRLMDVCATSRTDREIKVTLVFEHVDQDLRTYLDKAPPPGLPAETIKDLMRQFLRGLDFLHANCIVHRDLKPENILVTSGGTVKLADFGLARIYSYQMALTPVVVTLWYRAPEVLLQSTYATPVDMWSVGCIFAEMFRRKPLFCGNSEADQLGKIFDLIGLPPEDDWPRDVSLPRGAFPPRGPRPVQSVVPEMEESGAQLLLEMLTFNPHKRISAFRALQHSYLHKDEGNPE", "sequence (P30281 whole entry partner)": "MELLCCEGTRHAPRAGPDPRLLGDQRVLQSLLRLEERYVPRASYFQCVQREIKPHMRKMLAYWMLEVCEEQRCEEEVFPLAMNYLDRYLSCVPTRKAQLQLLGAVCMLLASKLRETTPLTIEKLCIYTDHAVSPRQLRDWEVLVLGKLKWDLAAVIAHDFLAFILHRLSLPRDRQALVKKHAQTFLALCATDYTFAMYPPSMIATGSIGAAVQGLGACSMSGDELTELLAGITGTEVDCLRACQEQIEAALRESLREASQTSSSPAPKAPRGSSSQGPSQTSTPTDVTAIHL", "experiment": "mobility shift assay"}, "LYNb": {"target": "T13, LYNb (Homo sapiens, UniProt P07948)", "T13 construct": "purchased Carna Biosciences", "experiment": "mobility shift assay"}, "MAP4K2": {"target": "T14, MAP4K2 (Homo sapiens, UniProt Q12851)", "T14 construct": "purchased Carna Biosciences", "experiment": "mobility shift assay"}, "SPHK1": {"target": "T15, SPHK1 (Homo sapiens, UniProt Q9NYA1)", "T15 construct": "purchased Carna Biosciences", "experiment": "mobility shift assay"}, "SYK": {"target": "T16, SYK (Homo sapiens, UniProt P43405)", "T16 construct": "purchased Carna Biosciences", "experiment": "mobility shift assay"}, "MAP2K6_Cascade": {"target": "T17, MAP2K6_Cascade (Homo sapiens, UniProt P52564)", "T17 construct": "purchased Carna Biosciences", "experiment": "mobility shift assay"}, "LATS2": {"target": "T18, LATS2 (Homo sapiens, UniProt Q9NRM7)", "T18 construct": "purchased Carna Biosciences", "experiment": "mobility shift assay"}, "CaMK1δ": {"target": "T19, CaMK1δ (Homo sapiens, UniProt Q8IU85)", "T19 construct": "purchased Carna Biosciences", "experiment": "mobility shift assay"}, "MAP3K5_Cascade": {"target": "T20, MAP3K5_Cascade (Homo sapiens, UniProt Q99683)", "T20 construct": "purchased Carna Biosciences", "experiment": "mobility shift assay"}, "FAK": {"target": "T21, FAK (Homo sapiens, UniProt Q05397)", "T21 construct": "purchased Carna Biosciences", "experiment": "mobility shift assay"}, "CDK6": {"target": "CDK6 (Homo sapiens, UniProt Q00534)", "sequence (Q00534 whole entry)": "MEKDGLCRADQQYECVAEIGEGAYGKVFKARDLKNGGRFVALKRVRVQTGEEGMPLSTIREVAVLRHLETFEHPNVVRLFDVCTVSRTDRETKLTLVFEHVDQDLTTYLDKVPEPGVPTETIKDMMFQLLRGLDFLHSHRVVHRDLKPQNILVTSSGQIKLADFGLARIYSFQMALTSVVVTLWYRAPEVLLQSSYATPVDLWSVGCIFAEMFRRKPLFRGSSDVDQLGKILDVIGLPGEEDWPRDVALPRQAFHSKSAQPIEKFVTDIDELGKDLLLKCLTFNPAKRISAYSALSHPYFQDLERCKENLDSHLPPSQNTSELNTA", "experiment": "IC50 by mobility shift assay", "conditions": "Table 4, inhibitory activity against CDK6, mobility shift assay; read-out: IC50 (μM), Kinase", "source_text": "Next, the compounds produced in Production Examples described above were each assessed for its inhibitory activity against CDK6 by mobility shift assay. In addition, a combination showing the highest inhibitory activity is indicated by italics."}, "MELK": {"target": "T22, MELK (Homo sapiens, UniProt Q14680)", "T22 construct": "purchased Carna Biosciences", "experiment": "mobility shift assay"}, "WNK3": {"target": "T23, WNK3 (Homo sapiens, UniProt Q9BYP7)", "T23 construct": "purchased Carna Biosciences", "experiment": "mobility shift assay"}, "SIK": {"target": "T24, SIK (Homo sapiens, UniProt P57059)", "T24 construct": "purchased Carna Biosciences", "experiment": "mobility shift assay"}, "p38B": {"target": "T25, p38B (Homo sapiens, UniProt Q15759)", "T25 construct": "purchased Carna Biosciences", "experiment": "mobility shift assay"}, "RSK2": {"target": "T26, RSK2 (Homo sapiens, UniProt P51812)", "T26 construct": "purchased Carna Biosciences", "experiment": "mobility shift assay"}, "PEK": {"target": "T27, PEK (Homo sapiens, UniProt Q9NZJ5)", "T27 construct": "purchased Carna Biosciences", "experiment": "IMAP Assay"}, "ROS": {"target": "T28, ROS (Homo sapiens, UniProt P08922)", "T28 construct": "purchased Carna Biosciences", "experiment": "mobility shift assay"}, "MNK1": {"target": "T29, MNK1 (Homo sapiens, UniProt Q9BUB5)", "T29 construct": "purchased Carna Biosciences", "experiment": "mobility shift assay"}, "CDK2/CycE1": {"target": "T30, CDK2/CycE1 (Homo sapiens, UniProt P24941)", "T30 construct": "purchased Carna Biosciences", "experiment": "mobility shift assay"}, "NEK4": {"target": "T31, NEK4 (Homo sapiens, UniProt P51957)", "T31 construct": "purchased Carna Biosciences", "experiment": "mobility shift assay"}, "NEK1": {"target": "T32, NEK1 (Homo sapiens, UniProt Q96PY6)", "T32 construct": "purchased Carna Biosciences", "experiment": "mobility shift assay"}, "PKCθ": {"target": "T33, PKCθ (Homo sapiens, UniProt Q04759)", "T33 construct": "purchased Carna Biosciences", "experiment": "mobility shift assay"}, "IRAK1": {"target": "T34, IRAK1 (Homo sapiens, UniProt P51617)", "T34 construct": "purchased Carna Biosciences", "experiment": "IMAP Assay"}, "RET(M918T)": {"target": "T35, RET(M918T) (Homo sapiens, UniProt P07949, M918T)", "T35 construct": "purchased Carna Biosciences", "experiment": "mobility shift assay"}, "PKCα": {"target": "T36, PKCα (Homo sapiens, UniProt P17252)", "T36 construct": "purchased Carna Biosciences", "experiment": "mobility shift assay"}, "TXK": {"target": "T37, TXK (Homo sapiens, UniProt P42681)", "T37 construct": "purchased Carna Biosciences", "experiment": "mobility shift assay"}, "DDR2": {"target": "T38, DDR2 (Homo sapiens, UniProt Q16832)", "T38 construct": "purchased Carna Biosciences", "T38 sequence (Q16832 22-855)": "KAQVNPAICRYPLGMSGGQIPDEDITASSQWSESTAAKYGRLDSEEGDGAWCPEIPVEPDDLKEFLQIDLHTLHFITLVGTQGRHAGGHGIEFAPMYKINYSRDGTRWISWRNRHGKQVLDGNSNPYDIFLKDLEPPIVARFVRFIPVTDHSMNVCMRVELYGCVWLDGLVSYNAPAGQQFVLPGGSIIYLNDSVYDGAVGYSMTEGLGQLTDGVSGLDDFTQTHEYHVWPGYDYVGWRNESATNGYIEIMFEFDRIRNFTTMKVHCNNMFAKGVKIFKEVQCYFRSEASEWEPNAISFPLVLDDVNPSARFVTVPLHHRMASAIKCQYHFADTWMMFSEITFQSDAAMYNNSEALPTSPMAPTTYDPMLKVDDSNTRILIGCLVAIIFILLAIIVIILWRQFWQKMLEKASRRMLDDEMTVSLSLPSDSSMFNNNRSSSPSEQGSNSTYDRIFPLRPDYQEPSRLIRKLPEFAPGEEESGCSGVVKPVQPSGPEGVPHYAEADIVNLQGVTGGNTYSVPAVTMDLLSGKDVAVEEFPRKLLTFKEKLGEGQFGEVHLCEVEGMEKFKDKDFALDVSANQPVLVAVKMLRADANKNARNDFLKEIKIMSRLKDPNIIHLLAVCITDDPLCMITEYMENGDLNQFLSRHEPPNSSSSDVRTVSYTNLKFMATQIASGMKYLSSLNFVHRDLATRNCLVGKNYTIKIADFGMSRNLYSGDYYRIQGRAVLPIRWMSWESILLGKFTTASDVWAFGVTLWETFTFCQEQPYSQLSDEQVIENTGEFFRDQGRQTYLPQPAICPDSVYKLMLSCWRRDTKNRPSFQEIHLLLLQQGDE", "experiment": "mobility shift assay"}}}
{"compound": "C[C@@H]1CC[C@H]2C(C)(C)CCC[C@]2(C)c2c1oc1c(C=O)c(O)c(O)cc21", "note": "[LG-1, liphagal]", "values": [{"measurement": "inhibition at 10 µM", "setting": "CaMK2γ", "value": 3.8, "unit": "%"}, {"measurement": "inhibition at 10 µM", "setting": "PKACα", "value": 2.3, "unit": "%"}, {"measurement": "inhibition at 10 µM", "setting": "CDC2/CycB1", "value": 33.7, "unit": "%"}, {"measurement": "inhibition at 10 µM", "setting": "AurC", "value": 36.3, "unit": "%"}, {"measurement": "inhibition at 10 µM", "setting": "ABL(T315I)", "value": 6.1, "unit": "%"}, {"measurement": "inhibition at 10 µM", "setting": "ALK(C1156Y)", "value": 0.2, "unit": "%"}, {"measurement": "inhibition at 10 µM", "setting": "ROCK1", "value": 0.5, "unit": "%"}, {"measurement": "inhibition at 10 µM", "setting": "EFHB2", "value": 5.4, "unit": "%"}, {"measurement": "inhibition at 10 µM", "setting": "ARG", "value": 1.4, "unit": "%"}, {"measurement": "inhibition at 10 µM", "setting": "KIT(V654A)", "value": 22.3, "unit": "%"}, {"measurement": "inhibition at 10 µM", "setting": "TAOK2", "value": 24.5, "unit": "%"}, {"measurement": "inhibition at 10 µM", "setting": "NDR1", "value": 2.6, "unit": "%"}, {"measurement": "inhibition at 10 µM", "setting": "CDK4/CycD3; CDK4/CycD3", "value": 63.4, "unit": "%"}, {"measurement": "inhibitory activity against CDK4", "setting": "CDK4/CycD3; in words, 10 μM", "value": "Potent inhibitory activity"}, {"measurement": "inhibition at 10 µM", "setting": "LYNb", "value": 2.8, "unit": "%"}, {"measurement": "inhibition at 10 µM", "setting": "MAP4K2", "value": 5, "unit": "%"}, {"measurement": "inhibition at 10 µM", "setting": "SPHK1", "value": 59.8, "unit": "%"}, {"measurement": "inhibition at 10 µM", "setting": "SYK", "value": 17, "unit": "%"}, {"measurement": "inhibition at 10 µM", "setting": "MAP2K6_Cascade", "value": 19.9, "unit": "%"}, {"measurement": "inhibition at 10 µM", "setting": "LATS2", "value": -0.6, "unit": "%"}, {"measurement": "inhibition at 10 µM", "setting": "CaMK1δ", "value": 57.7, "unit": "%"}, {"measurement": "inhibition at 10 µM", "setting": "MAP3K5_Cascade", "value": 38, "unit": "%"}, {"measurement": "inhibition at 10 µM", "setting": "FAK", "value": 24.5, "unit": "%"}, {"measurement": "IC50", "setting": "CDK6", "value": 6.78, "unit": "µM"}, {"measurement": "inhibition at 10 µM", "setting": "MELK", "value": 49.2, "unit": "%"}, {"measurement": "inhibition at 10 µM", "setting": "WNK3", "value": 19, "unit": "%"}, {"measurement": "inhibition at 10 µM", "setting": "SIK", "value": 33.7, "unit": "%"}, {"measurement": "inhibition at 10 µM", "setting": "p38B", "value": 9.1, "unit": "%"}, {"measurement": "inhibition at 10 µM", "setting": "RSK2", "value": 14.5, "unit": "%"}, {"measurement": "inhibition at 10 µM", "setting": "PEK", "value": 13.2, "unit": "%"}, {"measurement": "inhibition at 10 µM", "setting": "ROS", "value": 8.6, "unit": "%"}, {"measurement": "inhibition at 10 µM", "setting": "MNK1", "value": 5.3, "unit": "%"}, {"measurement": "inhibition at 10 µM", "setting": "CDK2/CycE1", "value": 6.9, "unit": "%"}, {"measurement": "inhibition at 10 µM", "setting": "NEK4", "value": 8.7, "unit": "%"}, {"measurement": "inhibition at 10 µM", "setting": "NEK1", "value": 13.9, "unit": "%"}, {"measurement": "inhibition at 10 µM", "setting": "PKCθ", "value": -15, "unit": "%"}, {"measurement": "inhibition at 10 µM", "setting": "IRAK1", "value": 1.2, "unit": "%"}, {"measurement": "inhibition at 10 µM", "setting": "RET(M918T)", "value": 5.9, "unit": "%"}, {"measurement": "inhibition at 10 µM", "setting": "PKCα", "value": -8, "unit": "%"}, {"measurement": "inhibition at 10 µM", "setting": "TXK", "value": 23.1, "unit": "%"}, {"measurement": "inhibition at 10 µM", "setting": "DDR2", "value": 42.5, "unit": "%"}]}
